PubChem BioAssay AID2060888 (Molecular Pharmacology Branch, DTP, NCI, 2025)

System: 695427-040-R-J1-PDC complex spheroid viability
Assay: Anticancer human tumor 695427-040-R-J1-PDC patient-derived colon adenocarcinoma cell line growth inhibition [RAS]
Conditions: for IC50: curve of first compound; for viability, T/C: stronger effect = lower value
Description: RAS pathway inhibitors in Combinations in Complex Spheroids
A high-throughput screen of multi-cell type tumor spheroids was designed to identify active combinations of RAS pathway inhibitors and targeted small molecules. Complex spheroids include a stromal component modeled by human endothelial cells (HUVEC) and fibroblasts modeled by human mesenchymal stem cells (MSCs). The concentration ranges selected for each drug and investigational agent were based upon clinically achievable concentrations if the clinical Cmax of the agent was known.
Compounds. The drugs and investigational agents: abemaciclib (NSC768073), cobimetinib (NSC768068), divarasib (GDC6063, NSC841802), docetaxel (NSC628503), GDC-1971 (RLY-1971, NSC841576), gemcitabine (NSC613327), inavolisib (NSC800729), ipatasertib (NSC767898), KB-0742 (NSC834161), MRTX-1133 (NSC836407), osimertinib (NSC779217), RMC-4630 (NSC839698), RMC-6236 (NSC851965), RMC-6291 (NSC852671), Ro-3306 (NSC812927), sapanisertib (NSC764658), SN-38 (NSC673596), staurosporine (NSC755774), SY5609 (NSC837396), and tovorafenib (DAY101, NSC766906), were obtained from the National Cancer Institute (NCI) Developmental Therapeutics Program Chemical Repository. The FDA-approved anticancer drug set is available from the NCI Developmental Therapeutics Program. […] The stock solutions were prepared in dimethyl sulfoxide (DMSO, Sigma-Aldrich, St. Louis, MO, cat. D2650) at 800-fold the tested concentration and stored at -70 degrees C prior to their use. All drugs and investigational agents were tested over a range starting from a high concentration at or near the clinical Cmax and decreasing in half-log increments. If the clinical Cmax for an agent had not been determined, the highest concentration tested was 10 microM.
Cell Culture. All cells were maintained in an incubator at 37 degrees C and 5% CO2 with 95% humidity. The PDC lines were cultured according to standard operating procedures established by the NCI PDMR. All PDCs were thawed and cultured in Matrigel-coated flasks prepared with a working solution of 1X Ham's F-12 nutrient mix, without supplementation (Invitrogen, Waltham, MA, cat. 11765054), 100 U/mL penicillin-streptomycin (Invitrogen, cat. 15140122), and 2.5% Matrigel (Corning Inc., Corning, NY, cat. 354248) for the first three passages. The 362531-283-R-J2-PDC and 782815-120-R-J1-PDC lines were cultured in 6C/Colon 1B media, which includes advanced DMEM/F-12 (Thermo Fisher Scientific, cat. 12634028), 10 mM HEPES (Thermo Fisher Scientific, cat. 15630080), 1X GlutaMAX supplement (Thermo Fisher Scientific, cat. 35050061), 0.1 mg/mL primocin (InvivoGen, San Diego, CA, cat. ant-pm-2), 10% defined fetal bovine serum, heat inactivated (HyClone Laboratories Inc., Logan, UT, cat. SH30070.03HI), 50% L-WRN conditioned media (ATCC, cat. CRL-3276), 1.25 mM N-Acetyl-L-cysteine (Sigma-Aldrich, cat. A9165), 10 mM nicotinamide (Sigma-Aldrich, cat. N0636), 1X B-27 supplement (Thermo Fisher Scientific, cat. 17504044), 1X N-2 supplement (Thermo Fisher Scientific, cat. 17502048), 50 ng/mL human EGF (Thermo Fisher Scientific, cat. PHG0311), and 10 microM Y-27632 dihydrochloride (Tocris Bioscience, cat. 1254). The K12877-001-R-J1-PDC line was cultured in 6I media, which includes all 6C/Colon 1B media plus 10 ng/mL human FGF-10 (PeproTech, cat. 100-26), 1 ng/mL human FGF-2 (PeproTech, cat. 100-18B), 1 µM prostaglandin E2 (Tocris Bioscience, cat. 2296), […] hydrocortisone (Sigma-Aldrich, cat. H4001), and […] bovine insulin (Sigma-Aldrich, cat. I6634). The K86415-001-R-J1-PDC line was cultured in 6D media, which includes all 6C/Colon 1B media components minus the L-WRN conditioned media. The 485176-168-R4-J1-PDC was cultured in PANC media, which includes all 6C/Colon 1B media plus 100 ng/mL human FGF-10 (PeproTech, cat. 100-26), 500 nM SB-431542 (Selleckchem, cat. S1067), and 10 nM gastrin (Tocris Bioscience, cat. 3006). […]

[1] = second compound 0.0316 µM, first compound 0.0316 µM
[2] = second compound 0.0316 µM, first compound 0.1 µM
[3] = second compound 0.0316 µM, first compound 0.316 µM
[4] = second compound 0.0316 µM, first compound 1 µM
[5] = second compound 0.0316 µM, first compound 3.16 µM
[6] = second compound 0.0316 µM, first compound 10 µM
[7] = second compound 0.1 µM, first compound 0.0316 µM
[8] = second compound 0.1 µM, first compound 0.1 µM
[9] = second compound 0.1 µM, first compound 0.316 µM
[10] = second compound 0.1 µM, first compound 1 µM
[11] = second compound 0.1 µM, first compound 3.16 µM
[12] = second compound 0.1 µM, first compound 10 µM
[13] = second compound 0.316 µM, first compound 0.0316 µM
[14] = second compound 0.316 µM, first compound 0.1 µM
[15] = second compound 0.316 µM, first compound 0.316 µM
[16] = second compound 0.316 µM, first compound 1 µM
[17] = second compound 0.316 µM, first compound 3.16 µM
[18] = second compound 0.316 µM, first compound 10 µM
[19] = second compound 1 µM, first compound 0.0316 µM
[20] = second compound 1 µM, first compound 0.1 µM
[21] = second compound 1 µM, first compound 0.316 µM
[22] = second compound 1 µM, first compound 1 µM
[23] = second compound 1 µM, first compound 3.16 µM
[24] = second compound 1 µM, first compound 10 µM
[25] = second compound 3.16 µM, first compound 0.0316 µM
[26] = second compound 3.16 µM, first compound 0.1 µM
[27] = second compound 3.16 µM, first compound 0.316 µM
[28] = second compound 3.16 µM, first compound 1 µM
[29] = second compound 3.16 µM, first compound 3.16 µM
[30] = second compound 3.16 µM, first compound 10 µM
[31] = second compound 10 µM, first compound 0.0316 µM
[32] = second compound 10 µM, first compound 0.1 µM
[33] = second compound 10 µM, first compound 0.316 µM
[34] = second compound 10 µM, first compound 1 µM
[35] = second compound 10 µM, first compound 3.16 µM
[36] = second compound 10 µM, first compound 10 µM
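Note: viability read after seven days of drug exposure.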
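Throughout, for viability, T/C: 100% = DMSO vehicle control viability.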

`CC1(O)CCCC1n1c(=O)c(C(F)F)cc2cnc(NC3CCN(S(C)(=O)=O)CC3)nc21` (centres undefined) + C#Cc1c(F)ccc2cc(O)cc(-c3ncc4c(N5CC6CCC(C5)N6)nc(OCC56CCCN5CC(F)C6)nc4c3F)c12 showed an IC50 (second compound 0.0316 µM) of over 10 µM, an IC50 (second compound 0.1 µM) of over 10 µM and an IC50 (second compound 0.316 µM) of 8.96 µM. For the same compound, the IC50 (second compound 1 µM) was 7.32 µM, the IC50 (second compound 3.16 µM) was 4.29 µM and the IC50 (second compound 10 µM) was under 0.0316 µM. For the same compound, the viability, T/C [1] was 95.4%, the viability, T/C [2] was 95.5% and the viability, T/C [3] was 103%. For the same compound, the viability, T/C [4] was 123%, the viability, T/C [5] was 122% and the viability, T/C [6] was 57.4%. The viability, T/C [7] was 104%, the viability, T/C [8] was 94.7% and the viability, T/C [9] was 109%. For the same compound, the viability, T/C [10] was 120%, the viability, T/C [11] was 114% and the viability, T/C [12] was 52.5%. It also gave a viability, T/C [13] of 84%, a viability, T/C [14] of 80.6% and a viability, T/C [15] of 97.6%. It also gave a viability, T/C [16] of 103%, a viability, T/C [17] of 104% and a viability, T/C [18] of 45.4%. The viability, T/C [19] was 82.7%, the viability, T/C [20] was 75.3% and the viability, T/C [21] was 78.7%. It also gave a viability, T/C [22] of 89.8%, a viability, T/C [23] of 84.2% and a viability, T/C [24] of 38.1%. It also gave a viability, T/C [25] of 59.7%, a viability, T/C [26] of 54.7% and a viability, T/C [27] of 64.3%. It also gave a viability, T/C [28] of 57.4%, a viability, T/C [29] of 57.3% and a viability, T/C [30] of 30%. The viability, T/C [31] was 42.9%, the viability, T/C [32] was 41.9% and the viability, T/C [33] was 42.1%. For the same compound, the viability, T/C [34] was 43.4%, the viability, T/C [35] was 36.1% and the viability, T/C [36] was 15.6%.
Compound `CCC(CC)c1cc(NC2CCC(N)C2)n2nccc2n1` (centres undefined) + C#Cc1c(F)ccc2cc(O)cc(-c3ncc4c(N5CC6CCC(C5)N6)nc(OCC56CCCN5CC(F)C6)nc4c3F)c12 has an IC50 (second compound 0.0316 µM) of 1.96 µM, an IC50 (second compound 0.1 µM) of 1.89 µM and an IC50 (second compound 0.316 µM) of 1.8 µM. For the same compound, the IC50 (second compound 1 µM) was 1.6 µM, the IC50 (second compound 3.16 µM) was 1.24 µM and the IC50 (second compound 10 µM) was under 0.0316 µM. It also gave a viability, T/C [1] of 102%, a viability, T/C [2] of 109% and a viability, T/C [3] of 110%. For the same compound, the viability, T/C [4] was 110%, the viability, T/C [5] was 5.99% and the viability, T/C [6] was 12.4%. It also gave a viability, T/C [7] of 95.5%, a viability, T/C [8] of 90.5% and a viability, T/C [9] of 108%. It also gave a viability, T/C [10] of 101%, a viability, T/C [11] of 6.65% and a viability, T/C [12] of 13.9%. For the same compound, the viability, T/C [13] was 99.3%, the viability, T/C [14] was 90.8% and the viability, T/C [15] was 97.2%. It also gave a viability, T/C [16] of 91.3%, a viability, T/C [17] of 7.6% and a viability, T/C [18] of 13.9%. It also gave a viability, T/C [19] of 76.9%, a viability, T/C [20] of 70.5% and a viability, T/C [21] of 76.8%. The viability, T/C [22] was 82.1%, the viability, T/C [23] was 6.13% and the viability, T/C [24] was 17%. For the same compound, the viability, T/C [25] was 66.9%, the viability, T/C [26] was 59.6% and the viability, T/C [27] was 64.9%. The viability, T/C [28] was 59.2%, the viability, T/C [29] was 4.92% and the viability, T/C [30] was 15.3%. It also gave a viability, T/C [31] of 40.6%, a viability, T/C [32] of 43.7% and a viability, T/C [33] of 43.6%. For the same compound, the viability, T/C [34] was 38.2%, the viability, T/C [35] was 1.94% and the viability, T/C [36] was 7.42%.
